Laboratory results as given in patent publication EP4650362A1, “NEUROPROTECTIVE PSD-95 POLYPEPTIDE INHIBITOR AND USE THEREOF” (Beijing Tuo Jie Biopharmaceutical Co. Ltd., priority 2023, dated 2024).
Non-standard residues stand in square brackets, D forms with d. Residues, ends and D or L forms follow the SMILES beside them.

Experiment: plasma stability test, rat plasma
Format: in vitro ADME
Conditions: rat, plasma
Description: Solution preparation: An appropriate amount of a test polypeptide compound was weighed out and dissolved in an appropriate amount of 1× PBS to form a 1 mM test solution. NA-1 and NoNO42 were used as positive drugs, propantheline bromide was used as a human plasma test control, and lovastatin was used as a rat plasma test control. Plasma stability test: 12.5 µL of the 1 mM test solution was added to a 495 µL pre-incubated plasma sample. […] For each incubation time, two parallel samples were set. Subsequently, 200 µL of stop solution was added to stop the incubation, and the mixtures were vortexed for 5 min. Then the mixtures were centrifuged at 10,000 rpm at 4 °C for 10 min to remove the protein in the sample, and 70 µL of the supernatant was transferred to a new 96-well plate (70 µL of water was added to each well beforehand) and well mixed. […] Sample pretreatment: […] LC-MS analysis: […] (2) Mass-spectrometric conditions: The mass spectrometry analysis used an electrospray ionization (ESI) source, a positive ion analysis mode, and a multi-reaction monitoring (MRM) scan mode. […] The plasma stability of the polypeptide compound

Molecule `CC[C@H](C)[C@H](NC(=O)[C@H](CO)NC(=O)[C@H](CO)NC(=O)[C@H](CC(C)C)NC(=O)[C@@H](CCCCN)NC(=O)[C@H](CCCNC(=N)N)NC(=O)[C@H](CCCNC(=N)N)NC(=O)[C@@H](CCCNC(=N)N)NC(=O)[C@H](CCC(N)=O)NC(=O)[C@@H](CCCNC(=N)N)NC(=O)[C@H](CCCNC(=N)N)NC(=O)[C@H](CCCCN)NC(=O)[C@H](CCCCN)NC(=O)[C@@H](CCCNC(=N)N)NC(=O)CNC(=O)[C@@H](N)Cc1ccc(O)cc1)C(=O)N[C@@H](CCC(=O)O)C(=O)N[C@@H](CO)C(=O)N[C@@H](CC(=O)O)C(=O)N[C@H](C(=O)O)C(C)C` [NoNO42, YGrKKRrQrRRkLSSIESDV, reference compound] (H-YG[dR]KKR[dR]Q[dR]RR[dK]LSSIESDV-OH) has a remaining at 10 min, 25 µM of 98.4%, a remaining at 20 min, 25 µM of 93.6% and a remaining at 0.5 h, 25 µM of 93.6%. For the same molecule, the remaining at 1 h, 25 µM was 90.8% and the remaining at 2 h, 25 µM was 95%.
